In brackets after ≈: the same amount, converted by molar mass. Blank lines part the entries; values can stand above or below the compound they belong to.
What was measured:
Candida albicans [1] = test: CLSI broth microdilution MIC (Example 5); format: cell-based
Method: (§1) Antifungal minimum inhibitory concentration (MIC) testing was undertaken as recommended by the CLSI. Briefly, antifungal susceptibility tests were performed for amphotericin B, robenidine (NCL812) and robenidine analogs (NCL23, NCL24, NCL97, NCL113, NCL115, NCL195, NCL219, NCL220, NCL259, NCL265) by standard broth microdilution method (CLSI) in RPMI 1640. Various concentrations (ranging from high to low) of the selected compounds were prepared in RPMI 1640 medium by double dilution in 96-well microtitre plates. Each well contained an inoculum of approximately 2×10^3 cells/mL. The wells without addition of drugs served as negative (no inoculum) and positive (inoculum only) growth controls. Microtitre plates were incubated at 35° C. for 24-48 hours. […] Antifungal MICs were determined for each isolate in duplicate; if the values obtained were different, the MIC test was repeated a third time.

Cryptococcus neoformans [2] = test: CLSI broth microdilution MIC (Example 5); format: cell-based
Method: as §1

Candida albicans [3] = test: CLSI broth microdilution MIC (Example 3); format: cell-based
Method: (§2) Antifungal minimum inhibitory concentration (MIC) testing was undertaken as recommended by the CLSI. Briefly, antifungal susceptibility tests were performed for amphotericin B, robenidine (NCL812) and 5 robenidine analogs (NCL062, NCL195, NCL219, NCL259, NCL265) by standard broth microdilution method (CLSI) in RPMI 1640. Various concentrations (ranging from high to low) of the selected compounds were prepared in RPMI 1640 medium by double dilution in 96-well microtitre plates. Each well contained an inoculum of approximately 2×10^3 cells/mL. The wells without addition of drugs served as negative (no inoculum) and positive (inoculum only) growth controls. Microtitre plates were incubated at 35° C. for 24-48 hours. […] Antifungal MICs were determined for each isolate in duplicate; if the values obtained were different, the MIC test was repeated a third time. Antifungal susceptibility tests were performed for amphotericin B and NCL analogs by standard broth microdilution method (CLSI). Briefly, various concentrations (ranging from high to low) of the selected compounds were prepared in RPMI 1640 medium by double dilution in the 96-well plates. Each well contained an inoculum of approximately 2×10^3 cells/mL. The wells without addition of drugs served as a negative control. Micro plates were incubated at 35° C. for 48 hour and read spectrophotometrically at 600 nm, using a microplate reader (Multiskan-EX; Thermo Elect. Corp., USA).

Candida parapsilosis = test: CLSI broth microdilution MIC (Example 3); format: cell-based; details: Candida parapsilosis ATCC 22019
Method: as §2

C. gattii = test: CLSI broth microdilution MIC (Example 6); format: cell-based, Cryptococcus gattii
Method: (§3) Antifungal minimum inhibitory concentration (MIC) testing was undertaken as recommended by the CLSI (1). Briefly, antifungal susceptibility tests were performed for amphotericin B, robenidine (NCL812) and 10 robenidine analogs (NCL023, NCL024, NCL097, NCL113, NCL115, NCL195, NCL219, NCL220, NCL259, NCL265) by standard broth microdilution method (CLSI) in RPMI 1640. Various concentrations (ranging from high to low) of the selected compounds were prepared in RPMI 1640 medium by double dilution in 96-well microtitre plates. Each well contained an inoculum of approximately 2×10^3 cells/mL. The wells without addition of drugs served as negative (no inoculum) and positive (inoculum only) growth controls. Microtitre plates were incubated at 35° C. for 24-48 hours. […] Antifungal MICs were determined for each isolate in duplicate; if the values obtained were different, the MIC test was repeated a third time.

Candida albicans [4] = test: CLSI broth microdilution MIC (Example 6); format: cell-based
Method: as §3

Cryptococcus neoformans [5] = test: CLSI broth microdilution MIC (Example 6); format: cell-based
Method: as §3

Candida albicans [6] = test: CLSI broth microdilution MIC (Example 4); format: cell-based
Method: (§4) Antifungal minimum inhibitory concentration (MIC) testing was undertaken as recommended by the CLSI. Briefly, antifungal susceptibility tests were performed for amphotericin B, robenidine (NCL812) and robenidine (NCL) analogs (NCL004, NCL020, NCL023, NCL024, NCL062, NCL094, NCL097, NCL110, NCL113, NCL114, NCL115, NCL135, NCL139, NCL180, NCL181, NCL195, NCL219, NCL220, NCL228, NCL247, NCL250, NCL259, NCL260, NCL263, NCL265, NCL269, NCL274) by standard broth microdilution method (CLSI) in RPMI 1640. Various concentrations (ranging from high to low) of the selected compounds were prepared in RPMI 1640 medium by double dilution in 96-well microtitre plates. Each well contained an inoculum of approximately 2×10^3 cells/mL. The wells without addition of drugs served as negative (no inoculum) and positive (inoculum only) growth controls. Microtitre plates were incubated at 35° C. for 24-48 hours. […] Antifungal MICs were determined for each isolate in duplicate; if the values obtained were different, the MIC test was repeated a third time.

Cryptococcus neoformans [7] = test: CLSI broth microdilution MIC (Example 4); format: cell-based
Method: as §4

[8] = tested on: Candida albicans ATCC14053; test: Broth micro-dilution screen at 16 μg/mL and MIC (Example 9); format: cell-based; details: single concentration 16 μg/mL; Growth or No growth of C. albicans ATCC14053
Method: The antifungal activity of 201 NCL analogs against Candida albicans ATCC14053 in vitro was investigated. A broth micro-dilution method was used, according to CLSI guidelines as described. NCL analogs were dissolved in DMSO and originally screened at a single concentration of 16 μg/mL.

[9] = Candida albicans ATCC 90028, 1st
[10] = Candida albicans ATCC 90028, 2nd

MIC (Candida albicans [1]; C. albicans SA3): 2 µg/mL (≈ 2.16 µM)
MIC (Candida albicans [1]; Candida albicans ATCC 90028): 0.5 µg/mL (≈ 0.541 µM)
MIC (Candida albicans [1]; clinical isolate C. albicans 12-93301752 Azole Resistant): 0.5 µg/mL (≈ 0.541 µM)
MIC (Candida albicans [1]; clinical isolate C. albicans 14-90045999 Azole Resistant): 0.25 µg/mL (≈ 0.271 µM)
MIC (Candida albicans [1]; clinical isolate C. albicans 15-45171061): 0.125 µg/mL (≈ 0.135 µM)
MIC (Candida albicans [1]; clinical isolate C. albicans 15-91329871): 0.125 µg/mL (≈ 0.135 µM)
MIC (Candida albicans [1]; clinical isolate C. albicans 16-24136919 Azole Resistant): 0.5 µg/mL (≈ 0.541 µM)
MIC (Candida albicans [1]; clinical isolate C. albicans 16-46177400): 0.25 µg/mL (≈ 0.271 µM)
MIC (Candida albicans [1]; clinical isolate C. albicans 16-90050810): 0.125 µg/mL (≈ 0.135 µM)
MIC (Candida albicans [1]; clinical isolate C. albicans 16-90054237): 0.125 µg/mL (≈ 0.135 µM)
MIC (Candida albicans [1]; clinical isolate C. albicans 18-144-00196): 0.25 µg/mL (≈ 0.271 µM)
MIC (Candida albicans [1]; clinical isolate C. albicans 18-148-08188 Azole Resistant): 0.5 µg/mL (≈ 0.541 µM)
MIC (Cryptococcus neoformans [2]; Cryptococcus neoformans SA1): 0.25 µg/mL (≈ 0.271 µM)
MIC (Cryptococcus neoformans [2]; Cryptococcus neoformans SA2): 0.25 µg/mL (≈ 0.271 µM)
MIC (Candida albicans [3]; [9]): 0.25 µg/mL (≈ 0.271 µM)
MIC (Candida albicans [3]; [10]): 0.5 µg/mL (≈ 0.541 µM)
MIC (Candida albicans [3]; Candida albicans, 1st): 0.5 µg/mL (≈ 0.541 µM)
MIC (Candida albicans [3]; Candida albicans, 2nd): 1 µg/mL (≈ 1.08 µM)
MIC (Candida parapsilosis; 1st): 0.5 µg/mL (≈ 0.541 µM)
MIC (Candida parapsilosis; 2nd): 0.5 µg/mL (≈ 0.541 µM)
MIC (C. gattii; human clinical isolate C. gatti 17-90232099): 1 µg/mL (≈ 1.08 µM)
MIC (C. gattii; human clinical isolate C. gattii 16-90050373): 1 µg/mL (≈ 1.08 µM)
MIC (C. gattii; human clinical isolate C. gattii 17-90028211): 1 µg/mL (≈ 1.08 µM)
MIC (C. gattii; human clinical isolate C. gattii 17-90028217): 0.5 µg/mL (≈ 0.541 µM)
MIC (C. gattii; human clinical isolate C. gattii 17-90028242): 1 µg/mL (≈ 1.08 µM)
MIC (Candida albicans [4]; C. albicans SA3): 2 µg/mL (≈ 2.16 µM)
MIC (Candida albicans [4]; Candida albicans ATCC 90028): 0.5 µg/mL (≈ 0.541 µM)
MIC (Cryptococcus neoformans [5]; Cryptococcus neoformans SA1): 0.3 µg/mL (≈ 0.325 µM)
MIC (Cryptococcus neoformans [5]; Cryptococcus neoformans SA2): 0.3 µg/mL (≈ 0.325 µM)
MIC (Cryptococcus neoformans [5]; human clinical isolate C. neoformans serotype A/D hybrid): 0.5 µg/mL (≈ 0.541 µM)
MIC (Cryptococcus neoformans [5]; human clinical isolate C. neoformans var grubii 16-90050434): 1 µg/mL (≈ 1.08 µM)
MIC (Cryptococcus neoformans [5]; human clinical isolate C. neoformans var grubii 17-90028233): 2 µg/mL (≈ 2.16 µM)
MIC (Cryptococcus neoformans [5]; human clinical isolate C. neoformans var grubii 17-93996464): 1 µg/mL (≈ 1.08 µM)
MIC (Cryptococcus neoformans [5]; human clinical isolate C. neoformans var grubii 17-93996964): 1 µg/mL (≈ 1.08 µM)
MIC at 24-48 hours (Candida albicans [6]; Candida albicans ATCC 90028): 0.5 µg/mL (≈ 0.541 µM)
MIC at 24-48 hours (Candida albicans [6]; Candida albicans SA3): 2 µg/mL (≈ 2.16 µM)
MIC at 24-48 hours (Cryptococcus neoformans [7]; Cryptococcus neoformans SA1): 0.3 µg/mL (≈ 0.325 µM)
MIC at 24-48 hours (Cryptococcus neoformans [7]; Cryptococcus neoformans SA2): 0.3 µg/mL (≈ 0.325 µM)
SMILES: C[C@@H]1[C@H](O)[C@@H](C)/C=C/C=C/C=C/C=C/C=C/C=C/C=C/[C@H](O[C@@H]2O[C@H](C)[C@@H](O)[C@H](N)[C@@H]2O)C[C@@H]2O[C@](O)(C[C@@H](O)C[C@@H](O)[C@H](O)CC[C@@H](O)C[C@@H](O)CC(=O)O[C@H]1C)C[C@H](O)[C@H]2C(=O)O [Amphotericin B, reference compound]

MIC (Candida albicans [3]; [9]): 1 µg/mL
MIC (Candida albicans [3]; [10]): 1 µg/mL
MIC (Candida albicans [3]; Candida albicans, 1st): 0.5 µg/mL
MIC (Candida albicans [3]; Candida albicans, 2nd): 1 µg/mL
MIC (Candida parapsilosis; 1st): 0.5 µg/mL
MIC (Candida parapsilosis; 2nd): 1 µg/mL
MIC at 24-48 hours (Candida albicans [6]; Candida albicans ATCC 90028): 1 µg/mL
MIC at 24-48 hours (Candida albicans [6]; Candida albicans SA3): 1 µg/mL
MIC at 24-48 hours (Cryptococcus neoformans [7]; Cryptococcus neoformans SA1): 1 µg/mL
MIC at 24-48 hours (Cryptococcus neoformans [7]; Cryptococcus neoformans SA2): 1 µg/mL
SMILES: C/C(=N\NC(=N)N/N=C(\C)c1ccc(Cl)cc1)c1ccc(Cl)cc1.Cl [NCL062]
Screen at 16 μg/mL [8]: Growth
antifungal activity against the two isolates of Candida albicans (Candida albicans [6]; summary in words): high antifungal activity

— patent US20230310388A1, “Methods and Compositions for Treating Fungal Infections” (Neoculi Pty Ltd, priority 2020, published 2023)
